Laboratory results: US20120028985A1, “COMBINATIONAL THERAPY FOR TREATING AUTOIMMUNE DISEASE” (4SC AG, priority 2008, published 2012)
Values joined by “and” are separate entries in the source; they are usually repeats but may differ in a detail not shown here. Equal entries are not always repeated.

Tests used:
DBA1/J mice = assay: Collagen Induced Arthritis in Mice, Arthritic Index (AI); format: in vivo; details: po once daily, MTX 2.5 mg/kg, Formula (II) 50 mg/kg; for Average Arthritic Index, Mean: group mean
Description: Collagen Induced Arthritis in Mice
Bovine Type II collagen solution is prepared by dissolving at 4 mg/ml in 0.01 M acetic acid at 4-8° C. with stirring overnight. Immunogen is prepared by emulsifying a 1:1 vol:vol combination of collagen solution and Complete Freund's Adjuvant (CFA) (M. tuberculosis H37Ra suspension: 4 mg/ml).
DBA1/J mice (male, 7-8 weeks) are weighed. The animals are anesthetized, injected subcutaneously into the shaved base of the tail with collagen/CFA (0.050 ml/mouse; 100 microgram/mouse collagen in CFA) using a 1 ml syringe fitted with a 25 G needle and returned to the cages.
After three weeks (21 d) the procedure is repeated, though now with incomplete Freund's adjuvant (IFA) instead of CFA.
Animals are observed for one week and macroscopic signs of arthritis are scored 3-times weekly (Monday, Wednesday, Friday: M, W, F). Each paw receives a score: • a) 0=no visible effects of arthritis; • b) 1=edema and/or erythema of 1 digit; • c) 2=edema and/or erythema of 2 digits; • d) 3=edema and/or erythema of more than 2 digits; • e) 4=severe arthritis of entire paw and digits.
Calculate Arthritic Index (AI) by addition of individual paw scores and record. (Maximum AI=16)
After one week, mice are allocated to groups (10 mice per group) to give similar mean AI values and similar ranges of individual AI values in each treatment group.
Dosing is started, PO (per oral) once daily for 14 days.
AI scores determined 3× weekly.

Beagle dogs [1] = assay: 13-week repeat dose toxicity in Beagle dogs, combination with methotrexate: clinical biochemistry (ALAT, ASAT); format: in vivo; details: for ALAT, change as compared to the control group 1 / ASAT, change as compared to the control group 1: 25 mg Formula (II)/kg/day and/or 10/2.5 mg MTX/kg/week, p.o.
Description: For laboratory examinations blood samples were taken from the vena cephalica or vena saphena magna from animals fasted overnight. Serum samples were collected into tubes for biochemical tests. Clinical biochemistry parameters from venous blood were determined at the times listed below:
Prior to study start: all animals of a pool of 52 dogs […]
At the end of the recovery period: all 8 recovery animals included in this study
Clinical biochemistry parameters (e.g. bile acids, alanine aminotransferase=ALAT, alkaline phosphatise=aP, aspartate aminotransferase=ASAT, gamma-glutamyl-transferase=Gamma-GT, glutamate dehydrogenase=GLDH, creatine kinase=CK) were measured using KONELAB 30i instrument (Thermo Fisher Scientific, 63303 Dreieich, Germany) as U/L (unit/liter) serum.

[2] = Toxicokinetics of formula (II) and methotrexate after individual and concomitant administration to Beagle dogs; format: in vivo; details: for AUC(0-inf) / Cmax / half-life: mean
Beagle dogs [3] = details: Beagle dogs, 13 weeks oral
From the text: The animals were randomly allocated to five test groups employing a pseudo-random body weight stratification procedure that yielded groups with approximately equal mean body weights. […] A special focus of the study was to study the influence of the combination treatment on liver toxicity.

[4] = female, Beagle, dog, plasma, po, 10 mg/kg, Group 4 (+MTX), formula (II) 10 mg/kg, day 1, female Beagle dogs
[5] = female, Beagle, dog, plasma, po, 10 mg/kg, Group 4 (+MTX), formula (II) 10 mg/kg, week 13, female Beagle dogs
[6] = female, Beagle, dog, plasma, po, 25 mg/kg, Group 2, formula (II) 25 mg/kg alone, day 1, female Beagle dogs
[7] = female, Beagle, dog, plasma, po, 25 mg/kg, Group 2, formula (II) 25 mg/kg alone, week 13, female Beagle dogs
[8] = female, Beagle, dog, plasma, po, 25 mg/kg, Group 5 (+MTX), formula (II) 25 mg/kg, day 1, female Beagle dogs
[9] = female, Beagle, dog, plasma, po, 25 mg/kg, Group 5 (+MTX), formula (II) 25 mg/kg, week 13, female Beagle dogs
[10] = male, Beagle, dog, plasma, po, 10 mg/kg, Group 4 (+MTX), formula (II) 10 mg/kg, day 1, male Beagle dogs
[11] = male, Beagle, dog, plasma, po, 10 mg/kg, Group 4 (+MTX), formula (II) 10 mg/kg, week 13, male Beagle dogs
[12] = male, Beagle, dog, plasma, po, 25 mg/kg, Group 2, formula (II) 25 mg/kg alone, day 1, male Beagle dogs
[13] = male, Beagle, dog, plasma, po, 25 mg/kg, Group 2, formula (II) 25 mg/kg alone, week 13, male Beagle dogs
[14] = male, Beagle, dog, plasma, po, 25 mg/kg, Group 5 (+MTX), formula (II) 25 mg/kg, day 1, male Beagle dogs
[15] = male, Beagle, dog, plasma, po, 25 mg/kg, Group 5 (+MTX), formula (II) 25 mg/kg, week 13, male Beagle dogs

What does the source list for `COc1cccc(-c2ccc(NC(=O)C3=C(C(=O)O)CCC3)c(F)c2)c1` [Formula (II)]?
Average Arthritic Index, Mean (DBA1/J mice; study day 22): 0; Arthritic Index (individual mouse) (DBA1/J mice; study day 22): 0; Average Arthritic Index, Mean (DBA1/J mice; study day 23): 0; Arthritic Index (individual mouse) (DBA1/J mice; study day 23): 0; Average Arthritic Index, Mean (DBA1/J mice; study day 24): 0; Arthritic Index (individual mouse) (DBA1/J mice; study day 24): 0; Average Arthritic Index, Mean (DBA1/J mice; study day 25): 0; Arthritic Index (individual mouse) (DBA1/J mice; study day 25): 0; Average Arthritic Index, Mean (DBA1/J mice; study day 26): 0; Arthritic Index (individual mouse) (DBA1/J mice; study day 26): 0; Average Arthritic Index, Mean (DBA1/J mice; study day 27): 0; Arthritic Index (individual mouse) (DBA1/J mice; study day 27): 0; Average Arthritic Index, Mean (DBA1/J mice; study day 28): 0.7; Arthritic Index (individual mouse) (DBA1/J mice; study day 28): 1 (3×) and 0 (4×) and 2; Average Arthritic Index, Mean (DBA1/J mice; study day 30): 0.9; Arthritic Index (individual mouse) (DBA1/J mice; study day 30): 1 (4×) and 0 (3×) and 2 and 3; Average Arthritic Index, Mean (DBA1/J mice; study day 31): 2.2; Arthritic Index (individual mouse) (DBA1/J mice; study day 31): 2 (2×) and 3 (3×) and 1 (3×) and 4; Average Arthritic Index, Mean (DBA1/J mice; study day 32): 3.6; Average Arthritic Index, Mean (DBA1/J mice; study day 33): 5.2; Arthritic Index (individual mouse) (DBA1/J mice; study day 33): 6 (2×) and 11 and 2 (2×) and 5 (3×) and 8; Average Arthritic Index, Mean (DBA1/J mice; study day 35): 5.9; Arthritic Index (individual mouse) (DBA1/J mice; study day 35): 5 (2×) and 12 and 4 (3×) and 3 and 8; Average Arthritic Index, Mean (DBA1/J mice; study day 37): 6.9; Average Arthritic Index, Mean (DBA1/J mice; study day 40): 6.9; Average Arthritic Index, Mean (DBA1/J mice; study day 42): 7.0; Average Arthritic Index, Mean (DBA1/J mice; study day 44): 7.1; Average Arthritic Index, Mean (DBA1/J mice; study day 47): 7.6; Changes in the biochemical parameters (Beagle dogs [1]; Beagle dogs, 13 weeks oral, serum): slight increased enzyme activities of ALAT, ASAT and GLDH as well as slight increases of the bile acid concentration in serum; ALAT, change as compared to the control group 1 (Beagle dogs [1]; Test day 37, females): None; ASAT, change as compared to the control group 1 (Beagle dogs [1]; Test day 37, females): None; ALAT, change as compared to the control group 1 (Beagle dogs [1]; Test day 37, males): none; ASAT, change as compared to the control group 1 (Beagle dogs [1]; Test day 37, males): none; ALAT, change as compared to the control group 1 (Beagle dogs [1]; Test day 93, females): None; ASAT, change as compared to the control group 1 (Beagle dogs [1]; Test day 93, females): None; ALAT, change as compared to the control group 1 (Beagle dogs [1]; Test day 93, males): None; ASAT, change as compared to the control group 1 (Beagle dogs [1]; Test day 93, males): None; Toxicokinetic findings (plasma levels, interaction) ([2]; Beagle dogs, test day 1 and 85): clear dose response relationship; AUC(0-t) ([2]; female, Beagle, dog, plasma, po, 10 mg/kg): 598 µg·h/mL; AUC(0-inf) [2, 4]: 513 µg·h/mL; Cmax [2, 4]: 43000 ng/mL; half-life [2, 4]: 7.4 h; Cmax [2, 5]: 40500 ng/mL; half-life [2, 5]: 26.7 h; AUC(0-inf) [2, 6]: 773 µg·h/mL; Cmax [2, 6]: 56300 ng/mL; half-life [2, 6]: 8.6 h; AUC(0-inf) [2, 7]: 1010 µg·h/mL; Cmax [2, 7]: 66600 ng/mL; half-life [2, 7]: 11.1 h; AUC(0-inf) [2, 8]: 413 µg·h/mL; Cmax [2, 8]: 33100 ng/mL; half-life [2, 8]: 7.6 h; AUC(0-inf) [2, 9]: 1190 µg·h/mL; Cmax [2, 9]: 76300 ng/mL; half-life [2, 9]: 8.1 h; AUC(0-inf) [2, 10]: 322 µg·h/mL; Cmax [2, 10]: 30300 ng/mL; half-life [2, 10]: 6.3 h; AUC(0-inf) [2, 11]: 371 µg·h/mL; Cmax [2, 11]: 35700 ng/mL; half-life [2, 11]: 6.3 h; AUC(0-inf) [2, 12]: 289 µg·h/mL; Cmax [2, 12]: 22700 ng/mL; half-life [2, 12]: 7.8 h; AUC(0-inf) [2, 13]: 601 µg·h/mL; Cmax [2, 13]: 56900 ng/mL; half-life [2, 13]: 6.1 h; AUC(0-inf) [2, 14]: 858 µg·h/mL; Cmax [2, 14]: 60000 ng/mL; half-life [2, 14]: 8.4 h; AUC(0-inf) [2, 15]: 659 µg·h/mL; Cmax [2, 15]: 53600 ng/mL; half-life [2, 15]: 7.9 h; Influence on body weight, food and drinking water consumption and haematological parameters (Beagle dogs [3]): no influence
